≈ marks a conversion by molar mass, not a printed value. Like-named read-outs stand apart in the source and are kept apart here. One block for each compound: values may come before it.
Legend:
patients [1] = assay: Naltrexone therapy in approximately 6,000 patients; format: in vivo, human
Experimental: Our experiments in approximately 6,000 patients treated with naltrexone (release rate of between 0.5 to 20 mg/day) or 1 to 100 micrograms per hour, with similar release rates of antagonists, has confirmed improvements in multiple sclerosis in our patients and also in crohn's disease which are both inflammatory conditions. […] These experiments showing blocking of dopamine is why the combination of right hand isomer of naltrexone and flumazenil in the dose range described is the ideal treatment to arrest multiple sclerosis.

human adult volunteers = assay: Infusion of flumazenil for treatment of benzodiazepine addiction; format: in vivo
[2] = tested on: idiopathic hypersomnia patients; assay: Treatment of idiopathic hypersomnia patients with flumazenil; format: in vivo, human
Description: We tested this model of disease again in two idiopathic hypersomnia patients. Both individuals had severe sleep drunkenness for over 18 months (Patient 1) and for over 13 years (Patient 2). We believe this illness to be due to the damage in the balance between an initial insult that had caused hyperpolarisation of cells which made them nonresponsive to benzodiazepine, as the prolonged presence of high levels of endogenous benzodiazepines continues long after the initial insult or disease. The homeostatic mechanisms that balance the delivery of dopamine to their cells responded to the damaged benzodiazepine receptors by maintaining the endogenous benzodiazepines at a high level in order to get some benzodiazepines to their cells. This inadequate dopamine delivered by response to valium was not occurring when we met these patients and so their cells remained unable to conduct currents and also unable to recover from their hyperpolarisation in the absence of dopamine.
[…]. Patient 2 was treated in a similar way.
This is in contrast with an existing patient treated by the Emery Research Group, who indicated a dose of approximately 2 mg per body mass unit per day would be required. For P1, with a BMI of 34 this would equate to 68 mg per day, 17 times what they were given during the infusion.
During the infusion and the two weeks prior, P1 kept a record of sleepiness and mood, upon awaking, mid-awake and pre-sleep on a scale of 0-10. For sleepiness 0 represented an unavoidable need to sleep, while 10 is feeling awake and rested. Similarly for mood, 0 represents rock bottom, while 10 was chirpy, happy and cheerful.

release of dopamine = conditions: rats; combination of flumazenil and benzodiazepines; cited from earlier work
patients [3] = tested on: patients
patients [4] = conditions: intravenous or oral bolus doses as high as 20,000 micrograms; work of others; cited from earlier work
[5] = tested on: patient suffering from Parkinson's disease; assay: Finger tap test (one minute) and L-dopa intake in a Parkinson's disease patient; format: in vivo, human; conditions: for Tapping score: flumazenil 170 micrograms per hour plus 10 mg of valium per day
Experimental: A study was conducted to test the theory that the loss of function of neuronal cells from hyperpolarisation in a patient suffering from Parkinson's disease could be reversed, improved or corrected. […] In addition, the patient was also given 10 mg of valium per day to facilitate the “sick cells” in the substantia niagra region of the brain stem, being able to produce their own dopamine again.
The patient was asked to perform the “finger tap test”, which is an indicator of the extent of Parkinson's disease. Briefly, the patient is asked to tap an index finger as fast as possible for one (1) minute (CNS tap test). The greater the number of taps per minute, the greater the improvement.
The following results were observed over four hours of treatment to the patient.

Solubility of flumazenil = format: physicochemical
epilepsy patient = assay: Treatment of epilepsy patient with flumazenil; format: in vivo, human; conditions: 170 micrograms per hour, day following treatment
[6] = P1, 4 day subcutaneous infusion, 4 mg per day
[7] = P1, post treatment, scale of 0-10, 10 is feeling awake and rested
[8] = P1, post treatment, scale of 0-10, 10 was chirpy, happy and cheerful
[9] = P2, before dose was doubled to 8 mg/day
[10] = release rate of between 0.5 to 20 mg/day or 1 to 100 micrograms per hour

Structure (SMILES): O=C1CC[C@@]2(O)[C@H]3Cc4ccc(O)c5c4[C@@]2(CCN3CC2CC2)[C@H]1O5 (single isomer, unassigned) [L isomer of naltrexone]
dopamine effects (patients [1]; human, in vivo): reduces dopamine effects

solubility (Solubility of flumazenil; pH 1.2, simulated gastric fluid): 3000 µg/mL (≈ 9.89 mM)
solubility (Solubility of flumazenil; pH 7.5, aqueous buffer, pH of 7.5): 600 µg/mL (≈ 1.98 mM)
Structure (SMILES): CCOC(=O)c1ncn2c1CN(C)C(=O)c1cc(F)ccc1-2 [flumazenil]
relief in those who had damaged their benzodiazepine receptors (human adult volunteers; 1-8 mg of flumazenil per day, usually within hours of commencing): gained relief
symptoms treated by benzodiazepines (human adult volunteers; flumazenil infusions, within hours, maintained for up to 3 to 4 days or longer): marked improvement
safety of long term flumazenil in humans (human adult volunteers; more than 500 patients, intravenous, subcutaneous and implant delivery): safe for use in human beings
sleep drunkenness ([2]; 4 mg per day, within 3 days, both patients): full relief
concentration, memory and attention span [2, 6]: marked improvement
symptoms of IH reported during the infusion [2, 6]: not having experienced any sleep drunkenness, excessive day time sleepiness, heart palpitations or cold hands and feet
Stanford Sleepiness Scale (SSS) score ([2]; P1, at completion of flumazenil treatment, 6 out of a possible 8 at the time of treatment): 3
Epworth Sleepiness Scale (ESS) score ([2]; P1, at completion of flumazenil treatment, 21 of a possible 24 at the time of treatment): 4
Awaking sleepiness [2, 7]: 6.2 ± 0.8
Mid-awake sleepiness [2, 7]: 6.8 ± 0.5
Pre-sleep sleepiness [2, 7]: 5.8 ± 1.7
Awaking mood [2, 8]: 8.8 ± 0.4
Mid-awake mood [2, 8]: 8.8 ± 0.5
Pre-sleep mood [2, 8]: 8.5 ± 0.6
mental clarity of second patient (P2) [2, 9]: increase in mental clarity
tiredness and napping of second patient (P2) [2, 9]: still been very tired and napping through the day
health status of Patient 1 ([2]; flumazenil infusion at 2 mg/day by implant, within 7 days): full return to normal health
release of dopamine (release of dopamine): enhance the release of dopamine
calmness and the ability to relate to others (patients [3]; 20 to 300 microgram per hour, subcutaneous and intravenous infusions, within 3 days (5 days at the lower end)): significant improvement
extent of changes in those with depression, anxiety and fear (patients [3]; at the 20 mg/hour end of the scale): less
extent of changes in those with depression, anxiety and fear (patients [3]; beyond 40 mg/hour): very marked
confidence in those with depression, anxiety and fear (patients [3]; during the infusion treatment): showed a confidence in themselves
depression and anxiety symptoms in patients previously diagnosed with psychosis (patients [3]; more than 20 of the 500): lifted in their depression and in their anxiety symptoms
alertness during infusion treatment (patients [3]; most of the 500): an increase in problem solving and reported a decrease in distractibility
sleep (patients [3]; nearly all of the 500, one patient reported difficulty getting to sleep): return to natural sleep
adverse effects of bolus doses (patients [4]): anxiety attacks or fits
Tapping score ([5]; 0 hours from infusion (baseline)): 40 taps per minute
Tapping score ([5]; 2 hours from infusion): 50 taps per minute
Tapping score ([5]; 3 hours from infusion): 60 taps per minute
Tapping score ([5]; 4 hours from infusion): 73 taps per minute
L-dopa medication dosage after commencing infusion treatment ([5]; reduced from 1500 mg/day within days of commencing infusion, with valium): 250 mg/day
tolerance of light (light activating peti mal episodes) (epilepsy patient): able to go for a walk in the sun for an hour with no hat or sunglasses
fits (peti mal episodes) (epilepsy patient; none since (48 hour), previously at least 4-5 times each day): no fits

Structure (SMILES): O=C1CC[C@@]2(O)[C@H]3Cc4ccc(O)c5c4[C@@]2(CCN3CC2CC2)[C@H]1O5 [naltrexone]
crohn's disease (patients [1]; [10]): improvements
multiple sclerosis (patients [1]; [10]): improvements
